Entries after “also recorded” stand apart in the source; their conditions may differ.
Columns and labels:
Assay type in all cases: cell-based, murine
3T3-L1 cells [1] = test: DNA fragmentation (Roche Cell Death Detection ELISA) in stable knockout populations and clones; conditions: 10^−7M
Experimental: DNA Fragmentation (ELISA method): Apoptopic cells show hallmark random DNA fragmentation between nucleosomes. The “Cell Death Detection ELISA” format by Roche (Mannheim, Germany) was used in the following examples. Culture treatments and controls were performed for the tested period and after counting the cells and washing them twice with PBS, 250,000 cells/aliquot were prepared and stored dry at −180° C. until assay. Multiple replicates were usually prepared for assay together on the same day in the same kit. Assay was carried out exactly as described by the manufacturer on 250,000 cells/aliquot.
One hallmark of apoptosis is DNA fragmentation. In the current studies the Roche (Mannheim, Germany) version of this assay was used in the format of an ELISA assay, which measures released intact DNA/Histone-nucleosomes. The results are presented as antisense knockout levels normalized to parallel control values. In the experiment shown in FIGS. 10A-10B, populations of 3T3-L1 cells with either of the two 12Lo antisense knockout plasmids (“mp”-pCMV5′mp12Lo(Pst1)-A; “600a”-pcDNAh60012LoA) versus controls (“Con”) were directly compared: cell death versus relative DNA fragmentation.
To further validate the mechanism of cell death the Roche Cell Death kit was applied as a measure of DNA fragmentation, which is a classic apoptopic hallmark. […]

3T3-L1 stable cell lines = test: Necrosis by lactate dehydrogenase (LDH) release
Experimental: Lactate Dehydrogenase Release (LDH): Necrotic cells release their cytoplasmic contents into the surrounding medium. In recent years the measurement of one such stable enzyme, LDH, has become a standard laboratory marker of necrosis (Goeptar et al., 1994; Moran et al., 1996). Cell cultures and treatments tested for LDH release had their supernatants collected, centrifuged (1,100×g, 5 minutes; to remove particulate debris) and supernatants tested automatically in a centralized facility (in-house) by method of Moran and Schnellmann (Moran et al., 1996), 1996. In each study a positive control for LDH release was a 1/5000 dilution of triton X100 directly into the cell culture, for the period of the bioassay. Negative control was medium without cells.
Cell death can occur as a result of different processes: apoptosis, which is a very programmed process, as well as other less programmed mechanisms such as necrosis. […] In recent years, investigators have been measuring the release of lactate dehydrogenase (LDH) from cells as a measure of cellular necrosis. The contribution of necrosis in the cell death of the 12Lo reduced expressing clones was thus examined by comparing LDH release from control and pCMV600a 12Lo antisense knockout stable preadipocyte cell lines grown in the presence or absence of 12-HETE. In FIG. 15, typical data of such a study is presented.

3T3-L1 cells [2] = test: Basal cell death of stable 12Lo antisense knockout populations and clones (trypan blue)
3T3-L1 cells [3] = test: G418 selection kill level; conditions: 600 μg/ml G418 over two weeks
Experimental: 600 μg/ml is enough G418 to kill 100% 3T3-L1 cells over 2 weeks. Thus the levels used clearly distinguish between cells that incorporated G418 resistance (within the expression plasmid used) into their genomes and cells lacking this marker. A few passages after G418 release stable populations should recover and fill the plate.
The Fugene6 protocol was then used again for preparation of 12Lo antisense knockout and control clones together with the G418 selection marker as G418 resistance was built in to the pCDNA3.1 plasmid (see FIGS. 2A-2D). It was herein determined that 600 μg/ml G418 killed 100% of 3T3-L1 cells over two weeks. So on transfection of cells and selection with 650 μg/ml G418 over three weeks only those cells expressing strong […] resistance would survive and grow. Following three weeks of selection G418 release was gradual over the next 1-2 weeks.

| SMILES | effect of 12-HETE on DNA fragmentation levels (3T3-L1 cells [1]; each of the pCMV600a clonal stable lines) | DNA fragmentation level on supplemented 12-HETE (3T3-L1 cells [1]; pCMV600a clone 10) | effect of 12-HETE on cell necrosis (LDH release) (3T3-L1 stable cell lines) | effect of added 12-HETE on cell death of 12Lo antisense knockout clones (3T3-L1 cells [2]; 12-HETE 10^−7 M) | effect of 12-HETE on cell survival of control clone (3T3-L1 cells [2]; pCMVCAT stably transfected 3T3-L1 cells, 10^−7M) | 3T3-L1 cells killed (3T3-L1 cells [3]) |
| --- | --- | --- | --- | --- | --- | --- |
| CCCCC/C=C\C[C@@H](O)/C=C/C=C\C/C=C\CCCC(=O)O [12-HETE, 12 hydroxyeicosatetraenoic acid] | reduced the DNA fragmentation levels | nearly “normal” (or control) levels | no effect | much less cell death; also recorded: encouraged cell survival | no effect | – |
| CN[C@@H]1[C@@H](O)[C@@H](O[C@@H]2[C@@H](O)[C@H](O[C@H]3O[C@H]([C@@H](C)O)[C@@H](O)[C@H](O)[C@H]3N)[C@@H](N)C[C@H]2N)OC[C@]1(C)O [G418] | – | – | – | – | – | 100% |
